# Laboratory results: patent US6592911B2, “(−)-Olivil as antioxidant which is obtained from a new natural source namely Stereospermum personatum” (Council of Scientific and Industrial Research, priority 2001, dated 2003)
# Test: In vitro free radical (DPPH) scavenging antioxidant potency
# Assay type: biochemical
# Conditions: for 50% Radical scavenging concentration of compounds, Concentration: DPPH radical 500 μM in ethanol, tris-HCl buffer pH 7.4, 45 minutes in dark, absorbency at 517 nm, triplicate
# Experimental: In Vitro Evaluation of Free Radical Scavenging Antioxidant Potency
# Antioxidant activity of the compounds was tested for its capacity/potency to scavenge most widely used free radical, 1,1-diphenyl-2-picryl hyrazyl radical (DPPH). […] 200 μl of test compounds were reconstituted to 1 ml in tris-HCl buffer (pH 7.4). Equal volume of 500 μM of DPPH radical dissolved in ethanol was reacted with this. After incubation for 45 minutes in dark, the absorbency at 517 nm was recorded. Percent radical scavenging activity was calculated accordingly. All the readings were taken in triplicate.
Structure (SMILES),"50% Radical scavenging concentration of compounds, Concentration [µg/mL]",antioxidant activity compared with reference drugs Probucol and alpha-tocopherol (comparison in words)
COc1cc(C[C@]2(O)CO[C@@H](c3ccc(O)c(OC)c3)[C@@H]2CO)ccc1O [(−)-Olivil],22.24,better than the above mentioned reference drugs
"Cc1c(C)c2c(c(C)c1O)CCC(C)(CCCC(C)CCCC(C)CCCC(C)C)O2 (stereo not drawn) [DL α-Tocopherol, reference compound]",47.80,–
